Experimental data: publication PMC10671050, “Alkyl Derivatives of Perylene Photosensitizing Antivirals: Towards Understanding the Influence of Lipophilicity” (International Journal of Molecular Sciences, 2023)
Values after ≈ are worked out from the molar mass of the structure shown. “Also recorded” adds a separate entry of the source. Read-outs that look alike come from different tables or passages of the source.

How the values were obtained:
[1] = Solubilization in 15% DMSO in water; conditions: for solubility: aqueous with cosolvent or surfactant or cyclodextrin, kinetic from dmso stock
Description: To perform this measurement, the compound was dissolved in DMSO and then diluted with water to achieve a solution containing 15% DMSO. The solution was centrifuged, and the resulting supernatant was lyophilized (evaporated) to dryness. Subsequently, the dry residue was dissolved in DMSO, and the concentration of the compound dissolved in DMSO was determined spectrophotometrically.
The mixtures were then centrifuged at 20,000 rcf for 5 min; 500 μL of the supernatant were collected and lyophilized; 76 µL of DMSO were added to the dry residue, and the absorbance was measured at the maximum absorption wavelength for compounds in solutions diluted 200 times with methanol. The data obtained were recalculated according to the law of dilutions and Beer’s law to obtain the initial concentrations of the compounds solubilized in 15% DMSO in water.

[2] = assay type: physicochemical; conditions: methanol, DPBF trap, 450–470 nm, relative to riboflavin
[3] = system: HSV-1, strain MacIntyre; assay: HSV-1 titer reduction assay in Vero cells; conditions: 10 µM, 48 h; for viral replication and spread in HSV-1-infected Vero cell culture: inside cell culture (Figure 6C); for anti-HSV-1 activity in Vero cells: viral titer in medium supernatant
[4] = system: VSV Indiana strain; assay: microbe, parasite or virus in culture; assay type: cell-based, vesicular stomatitis Indiana virus; conditions: Vesicular stomatitis virus, HEK-293T, 1 h, read-out: VSV, EC50
[5] = system: HSV-1 virus-cell fusion; assay: HSV-1-based fusion assay; assay type: cell-based, herpes simplex virus-1; conditions: for plaque numbers in fusion assay: Vero cells; for plaque size in fusion assay: Vero monolayers in presence of compound
Description: In the fusion assay, HSV-1 was attached to Vero cells at 4 °C, but virus–cell fusion was blocked due to the low temperature.
HSV-1 (100 PFU/mL) was then added to the cells and incubated at 4 °C for 2 h. After incubation, the cell monolayers were washed three times with ice-cold PBS to remove un-adsorbed virus, and fresh ice-cold medium containing the tested compounds (0, 0.08, 2, and 10 µM) was added to the cells and incubated for 2 h at 4 °C. After another 2 h incubation at 37 °C, the medium was aspirated, the cells were washed with PBS and fresh medium containing 1.5% carboxymethylcellulose was added to the cells.

[6] = system: HSV-1 envelope; assay: HSV-1 envelope interaction studies (intercalation assay); assay type: cell-based, herpes simplex virus-1; conditions: 2 and 10 µM, pre-incubation at 37 °C, Vero cells
[7] = system: Vero cells; assay: Light-induced cytotoxicity (photocytotoxicity) in Vero cells; assay type: cell-based, African Green Monkey; conditions: blue light 10 min vs daylight, 0–10 µM, 48 h
Description: (§1) Subsequently, cells treated with the compounds were irradiated with LEDs (465–480 nm, 30 mW/cm^2) for 10 min at RT. As a negative control, compound-treated cells were incubated for 10 min in daylight at RT. Then, both the irradiated and non-irradiated cell monolayers were incubated at 37 °C in the dark for 48 h. Subsequently, the cell culture medium was aspirated and the cytotoxicity of the tested perylene derivatives was determined based on cell viability using Cell Counting Kit-8 (Dojindo Molecular Technologies, Munich, Germany) according to the manufacturer’s instructions. Note: all manipulation with samples was performed in daylight (Figure 7K).

[8] = as above; assay type: cell-based, African Green Monkey; conditions: African green monkey, Vero cells; blue light 465–480 nm, 10 min, then 48 h; read-out: cell viability of Vero cells after irradiation
Description: as §1

[9] = system: HSV-1, strain MacIntyre; assay: Photodynamic inactivation of HSV-1 (virus treated with compound, plaque assay); assay type: cell-based, herpes simplex virus-1; conditions: for EC50: Human alphaherpesvirus 1, 10 min, HSV-1 10^4 PFU/mL, plaque assay
[10] = 10 min in daylight, read-out: EC50 (µM) in Daylight
[11] = blue light 465–480 nm, 30 mW/cm^2, 10 min, read-out: EC50 (µM) under Blue Light

SMILES	solubility in 15% DMSO in water [1]	solubility [1] [µM]	1O2 Quantum Yield [2] [%]	viral replication and spread in HSV-1-infected Vero cell culture [3]	anti-HSV-1 activity in Vero cells [3]	EC50 [4] [nM]	plaque numbers in fusion assay ([5]; 0.08 µM)	plaque size in fusion assay [5]	plaque numbers in fusion assay ([5]; most pronounced at 2 and 10 µM)	plaque formation after pretreatment of HSV-1 [6]	photocytotoxicity to Vero cells [7]	viability at 48 h [8] [%]	Decrease in EC50 (Fold) [9] [fold]	EC50 [9, 10] [µM]	EC50 [9, 11] [µM]
CCCCc1ccc2c3cccc4c(C#Cc5cn([C@@H]6O[C@H](CO)[C@@H](O)[C@@H]6O)c(=O)[nH]c5=O)ccc(c5cccc1c52)c43 [Compound 9a, 5-[9(10)-Butylperylen-3-ylethynyl]-arabino-uridine]	relatively high solubility	0.6 (≈ 0.345 µg/mL)	31.9 ± 8.5	did not suppress viral replication and spread	completely inhibited viral replication; also recorded: higher antiviral potency compared to acyclovir	2000 ± 1800	plaque numbers were similar to controls	significantly smaller plaques	reduction in plaque numbers	completely inhibited the ability of the virus to form plaques	did not increase the cytotoxicity	115 to 128	21.9	2.23	0.102
CCCCc1ccc2c3cccc4c(C#Cc5cn([C@H]6C[C@H](O)[C@@H](CO)O6)c(=O)[nH]c5=O)ccc(c5cccc1c52)c43 [Compound 11a, 5-[9(10)-Butylperylen-3-ylethynyl]-deoxy-uridine]	relatively high solubility	0.51 (≈ 0.285 µg/mL)	23.6 ± 1.4	did not suppress viral replication and spread	completely inhibited viral replication; also recorded: higher antiviral potency compared to acyclovir	500 ± 100	plaque numbers were similar to controls	significantly smaller plaques	reduction in plaque numbers	completely inhibited the ability of the virus to form plaques			18.6	1.83	0.098
